Measurements from EP2518139A1, “Use of indirubin derivatives for producing pluripotent stem cells” (Universitätsklinikum Jena, priority 2011, dated 2012).

Assays:
[1] = system: Smad1, Smad2, Smad4, Smurf1 and Smurf2; assay: qRT-PCR of Smad and Smurf expression in HeLa cells; assay type: cell-based, human; settings: BMP2 plus E738, 24h
Procedure: RT-PCR: Total RNA was isolated with RNA isolation kit from Qiagen according to the manufacturer's instructions. cDNA was generated by reverse-transcription of equivalent quantities of RNA and Quantitative real-time PCR (QRT-PCR) was performed as described previously.
We considered the possibility of E738 to block Smads RNA synthesis. […] The expressions of Smad-relative E3 ligases, Smurf1 and Smurf2, were inhibited more effectively and only 50% Smurf1 and 30% Smurf2 was remained to expressed. The results provided the regulation of indirubin in RNA level of R-Smads. […] We thus concluded occurrence of degradation direct in protein level rather than in RNA level.

Smad1/5/8 = assay: Immunoblot of p- and pan-Smad1/5/8 in HFF; assay type: cell-based, human; settings: BMP2 (100ng/mL), 24h
Procedure: Cell culture: HeLa and C2C12 were cultured in DMEM containing 10% FCS and 1 % PS. HFF was cultured in DMEM containing 15% FCS and 1 %PS. NIH 3T3 was cultured in DMEM containing 10% NCS and 1% PS. The cells were maintained unter 5% CO2 at 37°C in a humidified atmosphere. After 24h preincuabtion in serum-free medium, the cells were treated with various compounds and proteins as indicated in context. Transfection of siRNA oligonuleotide against Smurf1 was reported by Zhu et al (Zhu et al., nature 2006) and synthesized by riboxx and performed using riboxx®FECT reagent according to the manufacturer's instructions. 24h after transfection, the cells were treated with BMP (100ng/mL) and Compound as indicated before lysis.
Western blot:: Cell extracts were homogenized in Urea-Lysis buffer (1mM EDTA,0.5% Triton X-100), 5mM NaF, 6M Urea, 1mM Na3VO4, 10µg/mL Pepstatin, 100µM PMSF and 3µg/mL Aprotinin in PBS). Enhanced chemiluminescence (ECL) Western blot analysis was performed. 20-40µg of total protein was resolved on 10% SDS-PAGE gels and immunoblotted with specific antibodies. Primary antibodies were incubated at a 1:1,000 dilution in TBS (pH 7.5) with 0.1% Tween-20 and 5% BSA/nonfat milk with gentle agitation overnight at 4°C. The proper secondary antibodies were incubated in TBS (pH 7.5) with 5% BSA/nonfat milk and 0.1 % Tween-20 at a 1:5,000 dilution for 1 h at room temperature. […]

COc1ccc2c(c1)C(=C1Nc3ccccc3C1=NOCC(O)CO)C(=O)N2 (stereo not drawn) [E738]
Smad1 expression, repressed up to [1]: up to 60% | Smad2 expression, repressed up to [1]: ≤ 30% | Smurf1 remained to expressed [1]: 50% | Smurf2 remained to expressed [1]: 30% | concentration sufficient to reduce Smad1/5/8 (Smad1/5/8): 0.5 µM | p- and pan-Smad1/5/8 (Smad1/5/8; E738 0,5µM, 1µM and 5µM): decline of both
